According to patent US6670394B1, “Method for treating COPD” (SmithKline Beecham Corporation, priority 1999, dated 2003):

How the values were obtained:
[1] = tested on: TNFα production from isolated human monocytes; acid secretion in isolated rabbit parietal glands; assay: Therapeutic index, in vitro comparison: TNFα suppression in human monocytes versus acid secretion in rabbit parietal glands; assay type: cell-based; details: in comparison with R-rolipram
Method: Samples were then centrifuged and radioactivity in aliquots of the supernatant fraction and pellet were determined. […] The data were expressed as a percent of a response produced by a maximal concentration of histamine (100 μM). EC50 values were determined by linear interpolation using the maximum response obtained for each compound.
TNFα inhibition was assessed in human peripheral blood monocytes which were purified (Collata) from freshly obtained buffy coats or plasma-phoresis residues of blood from normal human donors. […] The cells were allowed to adhere for 1 hr, after which time the supernatant was aspirated and 1 ml of fresh medium (RPMI-1640 containing 1% fetal calf serum and penicillin/streptomycin at 10 U/ml) was added. The cells were incubated for 45 min in the presence or absence of test compounds at concentrations ranging from 1 nM to 1 mM prior to the addition of LPS (E. coli. 055:B5, Sigma Chemicals) to yield a final concentration of 100 ng/ml. […]
Levels of TNFα were measured using a ELISA (Winston) employing a murine monoclonal anti-human TNFα antibody (see below) as the capture antibody and a polyclonal rabbit antihuman TNFα as the second antibody. […] TNFα levels in samples were calculated from a standard curve generated with recombinant human TNFα produced in E. coli. […]

[2] = molecular target: T1, low affinity form of PDE 4 (human monocyte PDE 4 / hrPDE) (Homo sapiens, UniProt P27815); assay: PDE 4 catalytic activity assay (low affinity form, LPDE 4); assay type: biochemical; details: HPDE 4 IC50/LPDE 4 IC50
T1 construct: made in house; host or cells: yeast
Excerpt: Overall, most of the recombinant PDE 4 expressed in this system exists as LPDE 4 and only a small fraction as HPDE 4. Consequently, inhibition of recombinant PDE 4 catalytic activity primarily reflects the actions of compounds at LPDE 4. Inhibition of PDE 4 catalytic activity can thus be used as an index of the potency of compounds at LPDE 4.

COPD = assay: Administration to humans suffering from COPD; assay type: in vivo, human
Method: As regards treating COPD, the compound cis-[4-cyano-4-(3-cyclopentyloxy-4-methoxyphenyl)cyclohexan-1-carboxylate] was administered to humans suffering from COPD.

acid secretion = details: rats, particularly in combination with an activator of adenylate cyclase such as histamine; cited from earlier work
[3] = molecular target: high affinity rolipram binding site of PDE 4; assay: [3H]-rolipram binding competition assay (high affinity form, HPDE 4); details: competition for 1 nM [3H]-rolipram, rat brain high speed supernatants, 1 hour at 30° C.
Method: Rat brain high speed supernatants were used as a source of protein. […] The assay was run for 1 hour at 30° C. The reaction was terminated and bound ligand was separated from free ligand using a Brandel cell harvester. Competition for the high affinity binding site was assessed under conditions that were identical to those used for measuring low affinity PDE activity, expect that [^3H]-cAMP and [^3H]5′-AMP were not present.

[4] = clinical studies; cited from earlier work

T1 sequence (P27815 1-686 isoform P27815-3): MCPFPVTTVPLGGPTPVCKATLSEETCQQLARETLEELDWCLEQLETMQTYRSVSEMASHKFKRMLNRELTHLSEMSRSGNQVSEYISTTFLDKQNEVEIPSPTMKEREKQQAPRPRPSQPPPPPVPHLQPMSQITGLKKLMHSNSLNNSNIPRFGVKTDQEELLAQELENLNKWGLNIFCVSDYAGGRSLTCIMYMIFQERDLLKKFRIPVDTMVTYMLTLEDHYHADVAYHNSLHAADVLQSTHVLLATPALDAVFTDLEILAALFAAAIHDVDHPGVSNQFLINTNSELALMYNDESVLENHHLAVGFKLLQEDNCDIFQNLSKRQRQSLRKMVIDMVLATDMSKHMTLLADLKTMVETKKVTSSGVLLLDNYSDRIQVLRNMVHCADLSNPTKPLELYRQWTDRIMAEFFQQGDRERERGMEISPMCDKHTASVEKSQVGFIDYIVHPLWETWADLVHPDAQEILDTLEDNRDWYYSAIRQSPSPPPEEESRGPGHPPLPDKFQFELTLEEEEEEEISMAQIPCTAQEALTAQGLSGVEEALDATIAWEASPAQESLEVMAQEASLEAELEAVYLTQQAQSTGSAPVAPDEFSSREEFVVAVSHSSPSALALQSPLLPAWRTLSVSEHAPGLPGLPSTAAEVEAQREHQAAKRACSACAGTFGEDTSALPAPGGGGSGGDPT

COC(=O)C1CC(C#N)(c2ccc(OC(F)F)c(OCC3CC3)c2)CCC1=O (centres unmarked) [2-carbomethoxy-4-cyano-4-(3-cyclopropylmethoxy-4-difluoromethoxyphenyl)cyclohexan-1-one]
improvement in therapeutic index [1]: 100 fold

COc1ccc(C2CCC(c3nnn[nH]3)C2)cc1OC1CCCC1 (centres unmarked) [1-(5-tetrazole)-3-(3-cyclopentyloxy-4-methoxyphenyl)cyclopentane]
High/Low Ratio (IC50 high affinity form divided by IC50 low affinity form) [2]: 0.0018

COc1ccc(C2(C#N)CCC(C(=O)O)CC2)cc1OC1CCCC1 (stereo not drawn) [cis-[4-cyano-4-(3-cyclopentyloxy-4-methoxyphenyl)cyclohexan-1-carboxylate]]
effect in subjects suffering from COPD (COPD): reduced inflammation, bronchodilation and pulmonary neuromodulation

CCOC(=O)C=C1C[C@@H](c2ccc(OC)c(OC3CCCC3)c2)CN1 [(S)-(−)-ethyl[4-(3-cyclopentyloxy-4-methoxyphenyl)pyrrolidine-2-ylidene]acetate]
High/Low Ratio (IC50 high affinity form divided by IC50 low affinity form) [2]: .98

COc1ccc(C2CN(Cc3ccc(N)cc3)C(=O)N2)cc1OC1CCCC1 (centres unmarked) [1-(4-aminobenzyl)-4-(3-cyclopentyloxy-4-methoxyphenyl)-2-imidazolidinone]
High/Low Ratio (IC50 high affinity form divided by IC50 low affinity form) [2]: 0.07

N#CC1(c2ccc(OC(F)F)c(OCC3CC3)c2)CCC(O)CC1 (stereo not drawn) [cis-[4-cyano-4-(3-cyclopropylmethoxy-4-difluoromethoxyphenyl)cyclohexan-1-ol]]
improvement in therapeutic index [1]: 100 fold

OCCN(CCO)c1nc(N2CCCCC2)c2nc(N(CCO)CCO)nc(N3CCCCC3)c2n1 [dipyridamole, reference compound]
High/Low Ratio (IC50 high affinity form divided by IC50 low affinity form) [2]: 6.25

CCCCOc1cc(CC2CNC(=O)N2)ccc1OC (centres unmarked) [Ro 20-1724]
acid secretion (acid secretion): enhance acid secretion

CCOC(=O)C=C1C[C@H](c2ccc(OC)c(OC3CCCC3)c2)CN1 [(R)-(+)-ethyl [4-(3-cyclopentyloxy-4-methoxyphenyl)pyrrolidine-2-ylidene]acetate]
High/Low Ratio (IC50 high affinity form divided by IC50 low affinity form) [2]: 2.143

COc1ccc(C2CCN(Cc3ccc(NC(=NC#N)SC)cc3)C2=O)cc1OC1CCCC1 (centres unmarked) [3-(cyclopentyloxy-4-methoxyphenyl)-1-(4-N′-[N2-cyano-S-methyl-isothioureido]benzyl)-2-pyrrolidone]
High/Low Ratio (IC50 high affinity form divided by IC50 low affinity form) [2]: 0.30

COc1ccc(CCNC(=O)C(N)=O)cc1OC1CCCC1 [N-[2-(3-cyclopentyloxy-4-methoxyphenyl)ethyl]oxamide]
High/Low Ratio (IC50 high affinity form divided by IC50 low affinity form) [2]: 0.013

COc1ccc([C@@H]2CC[C@H](C(=O)O)C2)cc1OC1CCCC1 (relative stereo) [cis-[3-(3-cyclopentyloxy-4-methoxyphenyl)cyclopentane-1-carboxylate]]
High/Low Ratio (IC50 high affinity form divided by IC50 low affinity form) [2]: 0.0078 | IC50 [3]: 21 nM

COc1ccc(C2CNC(=O)C2)cc1OC1CCCC1 (centres unmarked) [rolipram]
acid secretion (acid secretion): enhance acid secretion | side effects [4]: has psychotropic activity and produces gastrointestinal effects

CC(C)Cn1c(=O)n(C)c(=O)c2[nH]cnc21 [IBMX, reference compound]
High/Low Ratio (IC50 high affinity form divided by IC50 low affinity form) [2]: 0.698

NC(=O)C(=O)NCCc1ccc(OC(F)F)c(OC(F)F)c1 [N-[2-(3,4-bisdifluoromethoxy-phenyl)ethyl]oxamide]
High/Low Ratio (IC50 high affinity form divided by IC50 low affinity form) [2]: 0.25
